Entries after “also recorded” stand apart in the source; their conditions may differ. Where no end group is shown, it is not given here. [ ]: non-standard residue; d: D form.
Legend:
[1] = test system: Primary rat neuronal cells; test: Glutamate induced cell death of primary neurons, D and L amino acid synthetic peptides; format: cell-based; conditions: FIG. 21; for protection of neurons from glutamate induced cell death: 250 μM glutamate for 5 minutes; for protection offered by the D form relative to the L form of the peptide: same concentrations, glutamate induced cell death
From the text: D amino acid forms of peptides SP35 (designated D35) (SEQ ID NO: 132) and SP36 (designated D36) (SEQ ID NO: 136) comprising D amino acids other than glycine were produced synthetically, as were peptides SP35, SP36 and TIJIP comprising L-amino acids. The retro-inverted peptides further comprised a TAT protein targeting domain fused to the C-terminus of the inverted peptide moiety and separated therefrom by a single L-glycine residue in each case. The amino acid sequences of the retro-inverted peptide analogues of SEQ ID NOs: 132 and 136 are set forth in SEQ ID NOs: 181 and 182, respectively.
Primary rat neuronal cells were isolated and cultured using methods known in the art. Cells were then incubated in the presence or absence of a test peptide, a positive control peptide (Ti JIP) or a combination of known small-molecule glutamate inhibitors (MK801 and CNQX). Cells were incubated in the presence of 250 μM glutamate for 5 minutes to induce cell death representative of ischemia induced cell death.

[2] = test system: Primary rat neuronal cells; test: Acute ischemia: anaerobic incubation of primary neurons (MTS assay); format: cell-based; conditions: anaerobic incubator for 35 minutes, peptide 15 mins pre-insult, MTS 24 hours later; FIG. 22
Procedure: Cells at the core of an ischemic event (e.g., a stroke) are subject to anaerobic conditions leading to severe energy depletion and glutamate release, which causes necrotic cell death. Such a condition is mimicked by incubating cell cultures in anaerobic conditions.
To determine the effect of peptides 35 (SEQ ID NO: 130) and 36 (SEQ ID NO: 134) comprising either D- or L-amino acids on an acute ischemic effect, primary rat neuronal cells were isolated and cultured. Synthetic peptides were added to cultures and the cells maintained in an anaerobic chamber for approximately 35 minutes. Cell survival was then measured.
Briefly, isolated rat neurons were treated with peptide for 15 mins pre-insult. After addition of peptide or control, Cells were washed in glucose free balanced salt solution containing deoxy glucose to prevent glycolysis. Cells were then incubated in anaerobic incubator for 35 minutes. Post insult, solution was removed, fresh media added to cells and MTS assayed for live cells 24 hours later.

c-Jun = biological target: T1, c-Jun (Homo sapiens, UniProt P05412); test: Co-immunoprecipitation of c-Jun with FLAG-tagged peptides from HEK293 cells; format: binding; conditions: anti-FLAG capture, anti-c-Jun detection, FIG. 16
T1 construct: expressed in transfected cells; host or cells: HEK293
Procedure: HEK293 cells were cultured in DMEM+10% FCS, 2 mM L-glutamine. On the day prior to transfection, cells were trypsinised and split into 6-well tissue culture plates so that they reached 80-90% confluency for transfection. Cells were co-transfected with pcDNA3-Jun (1.3 μg) and pcDNA3-peptide (2.6 μg) using Lipofectamine-2000 reagent (Life Technologies, U.S.A.) as per manufacturer's instructions. Forty-eight hours post-transfection, transfected cells were scraped from the plates, collected by centrifugation and proteins extracted in hypotonic lysis buffer (1OmM Tris, 1OmM NaCl, 2 mM EDTA, pH 7.5+protease inhibitors (Roche, U.S.A.)). Salt concentration was adjusted to 15OmM by addition of NaCl, debris pelleted and proteins in supernatant collected in fresh tubes.
A small aliquot (40 μl) of protein was set aside for western analysis. The remainder was incubated by rotation at 4° C. for two hours, with either anti-Flag conjugated agarose beads (Sigma-Aldrich, U.S.A.) anti-Flag antibody (Sigma-Aldrich), preconjugated to anti-mouse magnetic Dynabeads (Dynal Biotech, Norway) according to manufacturer's directions. Protein complexes bound to conjugated beads were collected by centrifugation or over a Dynal magnet, washed eight times for five minutes with NET-2 buffer (50 mM Tris-Cl pH7.5, 150 mM NaCl, 0.05% Nonidet P-40). […]

AP-I luciferase reporter = test: AP-1 luciferase reporter assay in K562-AP1 cells transfected with pcDNA3-peptide; format: cell-based; conditions: 48 hours after transfection, compared to control cells, p<0.05, FIG. 15
Procedure: The K562 cell line was stably-transfected with the AP-I luciferase reporter of the Mercury Profiling kit (Clontech, U.S.A.), and clonal cell line 26 established. In 6-well tissue culture plate format, K562-AP1 cells were transfected with either pcDNA3 control, pcDNA3-Jun or pcDNA3-peptide using Lipofectamine-2000 (Life Technologies), according to manufacturer's instructions. Transfections were incubated for 48 hours, cells collected and protein lysates extracted for luciferase assay according to Mercury Profiling kit and associated protocols. Luciferase assays were performed in independent triplicates, and results for each peptide subjected to statistical analysis (SPSS software package) to determine if they were different to Jun (positive control for AP-1 activation) or pcDNA-3 (negative control for AP-I activation).

SIRC cells = test: UV B induced cell death, FACS for propidium iodide and Annexin V; format: cell-based; conditions: 10 minutes UV B, media containing 10 micromolar peptide, FIG. 18c
Procedure: Cells were exposed to UV B radiation and the level of cell death determined. Briefly, corneal keratinocytes in culture were exposed to IOmins UV irradiation. Post-exposure, media was replaced with either normal media or media containing 10 micromolar peptide. Subsequently, cells were prepared for FACS analysis. FACS analysis was used to detect propidium iodide and the level of Annexin V in a cell to determine the number of cells undergoing necrosis, early apoptosis or late apoptosis.

Primary rat neurons = test: Glutamate induced cell death of primary neurons, in vitro ischemia model (MTS assay); format: cell-based; conditions: for rescue of primary neurons from glutamate induced cell death / number of cells surviving glutamate compared with TI-JIP: 250 μM glutamate; for rescue of primary neurons from glutamate induced cell death: live cells assayed 24 hours later, FIG. 19, 20; for number of cells surviving glutamate compared with TI-JIP: versus known c-Jun dimerization inhibitory peptide TI-JIP, FIG. 19
Procedure: Primary neuronal cells were isolated and cultured in the presence of glutamate (250 μM) for […] to induce cell death as a model of ischemia induced cell death.
Primary rat neurons were isolated from embryos (standard protocols), plated in cell culture dishes and maintained for 11 days in culture before experiment. Peptide was added 15 minutes to media before glutamate addition. Glutamate was added to final concentrations of 250 micromolar, for 5 mins at 37 degrees. Glutamate media removed, fresh media added. Assays for live cells done 24 hours later. Live cells were assayed using MTS assay.

T1 sequence (P05412 whole entry): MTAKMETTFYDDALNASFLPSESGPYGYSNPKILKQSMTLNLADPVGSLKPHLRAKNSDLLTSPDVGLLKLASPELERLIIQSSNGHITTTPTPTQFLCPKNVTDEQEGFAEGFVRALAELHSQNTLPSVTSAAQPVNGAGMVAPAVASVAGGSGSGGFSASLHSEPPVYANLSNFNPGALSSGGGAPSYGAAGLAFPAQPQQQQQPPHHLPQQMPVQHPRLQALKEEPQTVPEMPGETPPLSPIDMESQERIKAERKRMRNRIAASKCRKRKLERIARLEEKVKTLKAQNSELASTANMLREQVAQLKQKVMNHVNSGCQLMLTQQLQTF

Substance	protection of neurons from glutamate induced cell death [1]	protection offered by the D form relative to the L form of the peptide [1]	rescue of cells from cell death caused by acute ischemia [2]	expression of a reporter gene under control of an AP-I regulatory region (AP-I luciferase reporter)	rescue of primary neurons from glutamate induced cell death (Primary rat neurons)	number of cells surviving glutamate compared with TI-JIP (Primary rat neurons)	also measured
D35: retro-inverted analogue of SEQ ID NO: 132 with C-terminal TAT domain after a single L-glycine; SEQ ID NO: 181 ([dR][dE][dR][dR][dS][dS][dS][dQ][dI]GG[dS][dR][dI][dS][dQ][dY][dA]GRRRQRRKKRG; also: C-terminal TAT domain: chirality not given here) [Peptide D35]	protects a considerable proportion of neurons from glutamate induced cell death	superior	a considerable proportion of cells from cell death	–	–	–	–
D36: retro-inverted analogue of SEQ ID NO: 136 with C-terminal TAT domain after a single L-glycine; SEQ ID NO: 182 ([dP][dK][dI][dS][dQ][dY]G[dQ][dR][dR][dR]G[dQ][dL]GGRRRQRRKKRG; also: C-terminal TAT domain: chirality not given here) [Peptide D36]	protects a considerable proportion of neurons from glutamate induced cell death	equivalent	a considerable proportion of cells from cell death	–	–	–	–
SP20: c-Jun dimerization inhibitory peptide; amino acid SEQ ID NO: 94 with flanking vector sequence, 96 without (IYSSILWGTKWCVLLVITP)	–	–	–	–	–	–	binding of c-Jun in co-immunoprecipitation (c-Jun): capable of binding c-Jun to a level detectable in a co-immunoprecipitation
SP34: c-Jun dimerization inhibitory peptide; amino acid SEQ ID NO: 126 with flanking vector sequence, 128 without (AYQSINSSPVLPENSQELSLHLKQHVTKS)	–	–	–	significantly reducing expression of a reporter gene	–	–	–
SP36: c-Jun dimerization inhibitory peptide; amino acid SEQ ID NO: 134 with flanking vector sequence, 136 without (GLQGRRRQGYQSIKP)	protects a considerable proportion of neurons from glutamate induced cell death	–	–	significantly reducing expression of a reporter gene	capable of rescuing a significant proportion of cells from cell death; also recorded: capable of rescuing almost all cells from cell death; also recorded: dose dependent manner	considerably greater	number of cells undergoing apoptosis after UV B exposure (SIRC cells): capable of reducing the number of cells undergoing apoptosis; cells rescued from glutamate induced cell death (Primary rat neurons; about 5 μM of peptide, FIG. 20): about 100%
SP71: c-Jun dimerization inhibitory peptide; amino acid SEQ ID NO: 158 with flanking vector sequence, 160 without (PFFWRLNKIFYFIDSRVAAAILN)	–	–	–	significantly reducing expression of a reporter gene	capable of rescuing a significant proportion of cells from cell death	considerably greater	–
